Measurements as given in EP0654473A1, “Cyclopropane derivatives and antiviral agents containing the same” (Ajinomoto Co., Inc., priority 1993, dated 1995).
Counter-ions that a name gives are not always drawn.

Key:
HSV-1 (Tomioka strain) = assay: Efficacy test by oral administration in HSV-1 infected mice; type: in vivo, CDF-1 mouse; set-up: Survival Ratio after 21 days: unit: %; conditions: for Average Survival days / Survival Ratio after 21 days: HSV-1 i.p. infected CDF-1 mice; for Survival Ratio after 21 days: 10 mice per group
Method: A 4-week-age male CDF-1 mouse was intraperitoneally infected with HSV-1 (Tomioka strain) in an amount of 2.4 × 10⁵ pfu/mouse. Three hours after the infection, administration of each test compound was started. The test compound was dissolved in 0.2 ml of distilled water for injection use and intragastrically administered via catheter once a day for 5 days in a dose of 0.625, 1.25, or 2.5 µmol/kg/day. Each of the test groups consisted of 10 mice, and the survival ratio after 21 days from the administration and the average survival days were obtained.

[1] = Measurement of oral absorbability (plasma AUC after oral administration); conditions: in vivo, 0.1 mmol/kg in physiological saline, male ICR mouse, plasma concentration of 9-[1'S,2'R-bis(hydroxymethyl)cyclopropan-1'-yl]methylguanine by HPLC, 15 minutes to 4 hours
Method: Each of the test compounds was dissolved in 0.2 ml of physiological saline and orally administered to 5-week-age male ICR mouse in a dose of 0.1 mmol/kg. After 15 minutes, 30 minutes, 1 hour, 2 hours, or 4 hours from the administration, blood was collected from three mice, respectively, and centrifuged at 3,000 rpm for 10 minutes to obtain a plasma. A 20 % trichloroacetic acid aqueous solution (100 µl) was added to the plasma (100 µl), and the resulting mixture was shaken and then centrifuged at 8,000 rpm for 1 minutes to obtain a supernatant. The concentration of 9-[1'S,2'R-bis(hydroxymethyl)cyclopropan-1'-yl]methylguanine in the supernatant was measured by HPLC and the area under the blood concentration time curve (AUC) was calculated.

[2] = 0.625 µmol/kg/day intragastrically once a day for 5 days
[3] = 1.25 µmol/kg/day intragastrically once a day for 5 days
[4] = 2.5 µmol/kg/day intragastrically once a day for 5 days

SMILES | Average Survival days (HSV-1 (Tomioka strain); [2]) [days] | Survival Ratio after 21 days (HSV-1 (Tomioka strain); [2]) | Average Survival days (HSV-1 (Tomioka strain); [3]) [days] | Survival Ratio after 21 days (HSV-1 (Tomioka strain); [3]) | Survival Ratio after 21 days (HSV-1 (Tomioka strain); [4]) | efficacy (HSV-1 (Tomioka strain); in words, compared with 9-[1'S,2'R-bis(hydroxymethyl)cyclopropan-1'-yl]methylguanine) | Average Survival days (HSV-1 (Tomioka strain); [4]) [days] | AUC at 4 h [1] [µM·h]
C[C@H](N)C(=O)OC[C@@H]1C[C@@]1(COC(=O)[C@H](C)N)Cn1cnc2c(=O)[nH]c(N)nc21 [Compound of Example 1, 9-[1'S,2'R-bis(O-L-alanyloxymethyl)cyclopropan-1'-yl]methylguanine trihydrochloride] | 9.7 ± 2.7 | 40 | 14.3 ± 4.1 | 60 | 100 | superior efficacy | – | –
Nc1nc2c(ncn2C[C@]2(CO)C[C@H]2CO)c(=O)[nH]1 [9-[1'S,2'R-bis(hydroxymethyl)cyclopropan-1'-yl]methylguanine] | 7.8 ± 1.2 | 0 | 9.4 ± 1.9 | 0 | 60 | – | 11.3 ± 3.1 | 16
